In ChEMBL document CHEMBL3991601, “The target landscape of clinical kinase drugs” (Science, 2017):
pKd: −log10 of the molar value. The source made the active and inactive calls.

Key:
[1] = target: T1, Ephrin type-A receptor 1 (Homo sapiens, UniProt P21709)
T1 sequence (P21709 whole entry): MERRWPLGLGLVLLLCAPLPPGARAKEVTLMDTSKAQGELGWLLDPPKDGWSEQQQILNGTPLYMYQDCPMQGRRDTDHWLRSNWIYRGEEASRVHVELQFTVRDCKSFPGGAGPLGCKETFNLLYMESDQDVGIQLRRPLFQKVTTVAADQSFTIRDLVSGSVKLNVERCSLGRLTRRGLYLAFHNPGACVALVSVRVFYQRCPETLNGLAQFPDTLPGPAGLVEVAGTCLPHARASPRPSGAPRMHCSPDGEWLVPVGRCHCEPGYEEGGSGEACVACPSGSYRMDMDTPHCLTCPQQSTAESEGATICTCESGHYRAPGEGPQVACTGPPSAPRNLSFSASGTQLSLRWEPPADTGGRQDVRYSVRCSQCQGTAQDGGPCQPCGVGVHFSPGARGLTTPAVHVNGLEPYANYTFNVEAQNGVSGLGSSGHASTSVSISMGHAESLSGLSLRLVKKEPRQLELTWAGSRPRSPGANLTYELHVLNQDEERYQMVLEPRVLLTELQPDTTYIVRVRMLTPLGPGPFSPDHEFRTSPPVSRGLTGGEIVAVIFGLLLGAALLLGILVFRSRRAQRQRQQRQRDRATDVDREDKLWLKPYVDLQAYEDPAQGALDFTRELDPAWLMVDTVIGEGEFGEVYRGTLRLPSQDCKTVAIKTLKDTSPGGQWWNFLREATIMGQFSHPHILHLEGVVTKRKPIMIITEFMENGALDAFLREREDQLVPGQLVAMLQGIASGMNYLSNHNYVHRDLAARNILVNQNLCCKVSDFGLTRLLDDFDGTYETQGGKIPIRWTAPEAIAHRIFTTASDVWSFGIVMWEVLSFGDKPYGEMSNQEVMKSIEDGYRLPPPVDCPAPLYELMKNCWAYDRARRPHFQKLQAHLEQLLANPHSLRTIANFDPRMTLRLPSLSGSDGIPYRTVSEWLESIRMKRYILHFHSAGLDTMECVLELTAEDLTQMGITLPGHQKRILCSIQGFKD

[2] = target: High affinity nerve growth factor receptor (Homo sapiens, UniProt P04629)
[3] = target: Dual specificity testis-specific protein kinase 1 (Homo sapiens, UniProt Q15569)
[4] = target: T2, Long-chain-fatty-acid--CoA ligase 5 (Homo sapiens, UniProt Q9ULC5)
T2 sequence (Q9ULC5 whole entry): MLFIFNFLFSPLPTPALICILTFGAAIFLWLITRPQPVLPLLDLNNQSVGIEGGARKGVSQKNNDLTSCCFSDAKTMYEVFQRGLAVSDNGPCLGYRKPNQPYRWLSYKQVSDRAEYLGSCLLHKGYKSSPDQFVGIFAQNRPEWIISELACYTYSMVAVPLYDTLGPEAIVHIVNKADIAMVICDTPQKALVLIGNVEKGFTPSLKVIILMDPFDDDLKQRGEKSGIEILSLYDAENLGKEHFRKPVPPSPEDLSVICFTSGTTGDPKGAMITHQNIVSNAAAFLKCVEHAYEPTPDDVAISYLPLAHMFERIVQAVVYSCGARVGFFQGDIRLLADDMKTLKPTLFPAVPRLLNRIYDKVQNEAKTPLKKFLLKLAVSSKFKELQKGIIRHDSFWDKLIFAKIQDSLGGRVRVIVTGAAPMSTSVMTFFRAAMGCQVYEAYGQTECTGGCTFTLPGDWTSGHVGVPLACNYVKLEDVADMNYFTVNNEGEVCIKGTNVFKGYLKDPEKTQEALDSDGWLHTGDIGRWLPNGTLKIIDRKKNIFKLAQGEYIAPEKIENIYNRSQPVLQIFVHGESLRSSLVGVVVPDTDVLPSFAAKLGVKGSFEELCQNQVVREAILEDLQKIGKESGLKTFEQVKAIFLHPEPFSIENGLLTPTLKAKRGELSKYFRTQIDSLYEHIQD

[5] = target: Mitogen-activated protein kinase 14 (Homo sapiens, UniProt Q16539)
[6] = target: Protein kinase C theta type (Homo sapiens, UniProt Q04759)
[7] = target: G protein-coupled receptor kinase 6 (Homo sapiens, UniProt P43250)
[8] = target: PAS domain-containing serine/threonine-protein kinase (Homo sapiens, UniProt Q96RG2)
[9] = target: Serine/threonine-protein kinase N3 (Homo sapiens, UniProt Q6P5Z2)
[10] = target: Uncharacterized aarF domain-containing protein kinase 5 (Homo sapiens, UniProt Q3MIX3)
Further: in the data inactive means no Kd found up to 30 µM.

Chain of PAS domain-containing serine/threonine-protein kinase (Q96RG2 whole entry, the tested form may be a part): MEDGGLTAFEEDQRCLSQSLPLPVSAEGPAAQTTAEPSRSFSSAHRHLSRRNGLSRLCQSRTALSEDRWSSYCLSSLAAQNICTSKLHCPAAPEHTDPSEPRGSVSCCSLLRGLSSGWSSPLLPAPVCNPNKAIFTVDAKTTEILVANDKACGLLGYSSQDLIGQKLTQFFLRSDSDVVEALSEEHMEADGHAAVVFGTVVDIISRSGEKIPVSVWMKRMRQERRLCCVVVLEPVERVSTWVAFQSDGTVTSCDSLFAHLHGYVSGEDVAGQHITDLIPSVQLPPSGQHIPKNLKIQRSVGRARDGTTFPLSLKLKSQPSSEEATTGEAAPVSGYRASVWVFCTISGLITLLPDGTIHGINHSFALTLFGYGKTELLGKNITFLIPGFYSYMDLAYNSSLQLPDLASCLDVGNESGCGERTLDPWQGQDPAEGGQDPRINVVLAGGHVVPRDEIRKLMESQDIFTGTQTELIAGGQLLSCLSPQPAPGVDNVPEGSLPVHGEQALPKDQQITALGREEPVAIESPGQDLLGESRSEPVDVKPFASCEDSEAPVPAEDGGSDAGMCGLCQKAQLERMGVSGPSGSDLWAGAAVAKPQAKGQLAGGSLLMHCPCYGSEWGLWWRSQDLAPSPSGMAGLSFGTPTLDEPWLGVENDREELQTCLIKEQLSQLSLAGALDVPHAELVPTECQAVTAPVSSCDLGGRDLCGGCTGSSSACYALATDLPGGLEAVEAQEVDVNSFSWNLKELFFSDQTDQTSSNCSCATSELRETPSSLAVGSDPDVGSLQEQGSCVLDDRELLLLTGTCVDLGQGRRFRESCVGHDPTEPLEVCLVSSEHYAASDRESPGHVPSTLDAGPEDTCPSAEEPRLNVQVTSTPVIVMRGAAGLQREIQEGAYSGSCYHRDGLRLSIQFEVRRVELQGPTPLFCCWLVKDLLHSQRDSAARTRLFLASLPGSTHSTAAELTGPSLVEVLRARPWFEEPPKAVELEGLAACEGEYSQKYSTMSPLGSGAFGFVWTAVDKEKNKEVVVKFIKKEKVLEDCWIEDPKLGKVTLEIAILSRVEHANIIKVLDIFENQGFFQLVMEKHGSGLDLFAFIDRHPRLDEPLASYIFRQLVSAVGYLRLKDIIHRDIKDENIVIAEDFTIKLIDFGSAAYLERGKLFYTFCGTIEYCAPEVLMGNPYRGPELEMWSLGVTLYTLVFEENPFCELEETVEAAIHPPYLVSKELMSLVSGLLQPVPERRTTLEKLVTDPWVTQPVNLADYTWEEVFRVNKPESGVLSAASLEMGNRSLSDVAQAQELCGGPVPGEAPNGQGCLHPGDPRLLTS
Chain of Protein kinase C theta type (Q04759 whole entry): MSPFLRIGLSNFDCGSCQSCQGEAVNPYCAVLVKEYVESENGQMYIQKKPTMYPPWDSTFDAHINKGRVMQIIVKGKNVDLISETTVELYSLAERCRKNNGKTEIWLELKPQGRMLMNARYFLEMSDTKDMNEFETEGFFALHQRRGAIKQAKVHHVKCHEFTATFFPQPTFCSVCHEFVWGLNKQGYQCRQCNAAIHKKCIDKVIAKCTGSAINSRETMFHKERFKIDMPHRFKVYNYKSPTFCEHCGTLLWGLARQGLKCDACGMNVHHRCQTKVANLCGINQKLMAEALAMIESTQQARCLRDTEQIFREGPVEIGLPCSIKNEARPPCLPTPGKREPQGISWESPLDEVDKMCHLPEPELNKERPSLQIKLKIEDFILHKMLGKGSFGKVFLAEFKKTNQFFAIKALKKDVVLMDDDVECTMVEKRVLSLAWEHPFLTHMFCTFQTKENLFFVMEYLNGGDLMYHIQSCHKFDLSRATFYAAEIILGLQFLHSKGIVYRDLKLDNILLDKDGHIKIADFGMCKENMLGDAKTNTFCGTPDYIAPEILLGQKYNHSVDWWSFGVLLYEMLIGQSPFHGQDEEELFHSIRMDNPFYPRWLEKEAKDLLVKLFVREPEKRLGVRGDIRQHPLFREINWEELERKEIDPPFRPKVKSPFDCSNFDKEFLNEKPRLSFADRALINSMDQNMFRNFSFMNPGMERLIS
Chain of Uncharacterized aarF domain-containing protein kinase 5 (Q3MIX3 whole entry, the tested form may be a part): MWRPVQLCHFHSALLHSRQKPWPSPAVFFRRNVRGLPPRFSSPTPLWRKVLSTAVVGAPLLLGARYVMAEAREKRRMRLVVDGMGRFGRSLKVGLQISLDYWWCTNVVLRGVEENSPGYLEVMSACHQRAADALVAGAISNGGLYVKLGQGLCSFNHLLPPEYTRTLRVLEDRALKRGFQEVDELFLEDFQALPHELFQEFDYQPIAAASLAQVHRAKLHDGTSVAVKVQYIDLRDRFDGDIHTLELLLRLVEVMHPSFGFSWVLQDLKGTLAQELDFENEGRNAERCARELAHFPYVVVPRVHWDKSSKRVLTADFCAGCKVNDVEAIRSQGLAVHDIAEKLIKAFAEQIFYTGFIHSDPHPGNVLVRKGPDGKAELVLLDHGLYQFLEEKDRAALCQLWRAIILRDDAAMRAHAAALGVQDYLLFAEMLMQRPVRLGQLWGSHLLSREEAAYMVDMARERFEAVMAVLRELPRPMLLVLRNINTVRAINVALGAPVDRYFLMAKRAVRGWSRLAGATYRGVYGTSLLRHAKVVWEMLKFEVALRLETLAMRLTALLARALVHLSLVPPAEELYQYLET
Chain of Mitogen-activated protein kinase 14 (Q16539 whole entry): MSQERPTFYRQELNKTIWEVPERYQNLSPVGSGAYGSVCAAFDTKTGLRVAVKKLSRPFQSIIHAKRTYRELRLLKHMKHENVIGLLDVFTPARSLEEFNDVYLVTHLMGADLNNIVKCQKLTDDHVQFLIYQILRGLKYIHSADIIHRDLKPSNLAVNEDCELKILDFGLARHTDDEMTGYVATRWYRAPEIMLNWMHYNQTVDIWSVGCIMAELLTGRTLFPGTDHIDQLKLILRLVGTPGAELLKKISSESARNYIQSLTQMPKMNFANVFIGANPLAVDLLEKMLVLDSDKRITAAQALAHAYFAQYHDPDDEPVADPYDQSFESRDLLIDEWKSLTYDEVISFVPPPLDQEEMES
Chain of Serine/threonine-protein kinase N3 (Q6P5Z2 whole entry, the tested form may be a part): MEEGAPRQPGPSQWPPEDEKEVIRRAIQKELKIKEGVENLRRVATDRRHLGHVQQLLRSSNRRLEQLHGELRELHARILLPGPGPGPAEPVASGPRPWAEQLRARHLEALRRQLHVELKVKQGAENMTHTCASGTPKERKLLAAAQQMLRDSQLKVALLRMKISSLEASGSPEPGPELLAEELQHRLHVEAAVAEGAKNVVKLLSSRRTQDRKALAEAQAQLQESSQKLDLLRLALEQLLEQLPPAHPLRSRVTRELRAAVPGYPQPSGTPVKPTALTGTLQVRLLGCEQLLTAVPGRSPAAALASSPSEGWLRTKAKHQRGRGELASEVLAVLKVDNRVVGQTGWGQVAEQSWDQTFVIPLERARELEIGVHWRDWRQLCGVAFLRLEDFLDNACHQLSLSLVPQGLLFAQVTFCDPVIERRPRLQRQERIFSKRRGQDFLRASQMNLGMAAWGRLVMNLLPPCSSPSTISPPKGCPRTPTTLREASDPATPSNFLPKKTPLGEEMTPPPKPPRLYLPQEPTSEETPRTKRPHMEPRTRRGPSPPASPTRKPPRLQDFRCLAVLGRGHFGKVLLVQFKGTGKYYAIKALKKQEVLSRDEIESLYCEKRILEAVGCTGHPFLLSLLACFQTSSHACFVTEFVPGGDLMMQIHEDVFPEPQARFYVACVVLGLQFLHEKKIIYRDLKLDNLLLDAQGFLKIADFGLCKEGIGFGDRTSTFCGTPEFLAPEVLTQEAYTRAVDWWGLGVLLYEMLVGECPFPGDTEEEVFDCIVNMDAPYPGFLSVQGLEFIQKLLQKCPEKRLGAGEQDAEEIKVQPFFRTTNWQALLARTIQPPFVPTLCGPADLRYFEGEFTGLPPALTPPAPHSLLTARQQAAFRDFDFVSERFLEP
Chain of Dual specificity testis-specific protein kinase 1 (Q15569 whole entry): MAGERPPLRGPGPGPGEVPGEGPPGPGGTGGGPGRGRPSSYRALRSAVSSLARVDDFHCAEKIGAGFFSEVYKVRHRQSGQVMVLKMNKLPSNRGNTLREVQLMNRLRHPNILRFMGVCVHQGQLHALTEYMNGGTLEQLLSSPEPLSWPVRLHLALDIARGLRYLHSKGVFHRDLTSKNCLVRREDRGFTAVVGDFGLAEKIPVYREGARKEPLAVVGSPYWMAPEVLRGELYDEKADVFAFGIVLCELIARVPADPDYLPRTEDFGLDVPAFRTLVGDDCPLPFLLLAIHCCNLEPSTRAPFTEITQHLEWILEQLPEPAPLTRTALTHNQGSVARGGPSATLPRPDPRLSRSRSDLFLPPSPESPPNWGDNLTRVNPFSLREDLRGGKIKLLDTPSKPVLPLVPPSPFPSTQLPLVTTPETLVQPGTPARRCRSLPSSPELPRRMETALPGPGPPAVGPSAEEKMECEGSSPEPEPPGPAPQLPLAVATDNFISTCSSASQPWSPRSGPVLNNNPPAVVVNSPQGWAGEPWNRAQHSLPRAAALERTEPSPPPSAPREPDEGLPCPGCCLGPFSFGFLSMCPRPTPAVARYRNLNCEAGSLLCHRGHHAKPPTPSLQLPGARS
Chain of G protein-coupled receptor kinase 6 (P43250 whole entry, the tested form may be a part): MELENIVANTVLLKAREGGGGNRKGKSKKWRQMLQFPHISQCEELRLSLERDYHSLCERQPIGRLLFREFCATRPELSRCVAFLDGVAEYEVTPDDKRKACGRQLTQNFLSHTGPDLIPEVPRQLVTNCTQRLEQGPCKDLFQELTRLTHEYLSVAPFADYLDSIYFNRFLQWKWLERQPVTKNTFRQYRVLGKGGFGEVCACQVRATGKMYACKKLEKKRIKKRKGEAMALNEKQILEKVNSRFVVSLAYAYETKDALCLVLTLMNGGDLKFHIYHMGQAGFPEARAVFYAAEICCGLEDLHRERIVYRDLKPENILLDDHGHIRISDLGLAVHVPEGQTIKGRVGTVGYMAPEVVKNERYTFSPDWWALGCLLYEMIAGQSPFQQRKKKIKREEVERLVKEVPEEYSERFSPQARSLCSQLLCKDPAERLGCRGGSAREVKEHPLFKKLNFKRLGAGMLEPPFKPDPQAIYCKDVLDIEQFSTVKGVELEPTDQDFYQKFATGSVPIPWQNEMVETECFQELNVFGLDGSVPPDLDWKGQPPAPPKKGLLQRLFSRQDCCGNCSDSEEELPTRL

| Kd [1] | Kd [2] | Kd [3] | Kd [4] | Kd [5] | Kd [6] | Kd [7] | pKd [1] | Kd [8] | Kd [9] | Kd [10] | pKd [8] | Compound |
| --- | --- | --- | --- | --- | --- | --- | --- | --- | --- | --- | --- | --- |
| > 30 µM (inactive) | > 30 µM (inactive) | > 30 µM (inactive) | > 30 µM (inactive) | > 30 µM (inactive) |  |  |  |  |  |  |  | C[C@@H](Nc1cc(F)cc(F)c1)c1cc(C(=O)N(C)C)cc2c(=O)cc(N3CCOCC3)oc12 [AZD-8186] |
| > 30 µM (inactive) | > 30 µM (inactive) |  |  | > 30 µM (inactive) | > 30 µM (inactive) | > 30 µM (inactive) |  |  |  |  |  | CN1N=C(N)c2cn([C@@H]3O[C@H](COP(=O)(O)O)[C@@H](O)[C@H]3O)c3ncnc1c23 [TRICIRIBINE PHOSPHATE] |
|  | > 30 µM (inactive) |  | > 30 µM (inactive) | 0.705 µM (active) | > 30 µM (inactive) | > 30 µM (inactive) | 8.15 | > 30 µM (inactive) | > 30 µM (inactive) |  |  | CNC(=O)c1cc(Oc2ccc(NC(=O)Nc3ccc(Cl)c(C(F)(F)F)c3)c(F)c2)ccn1 [REGORAFENIB] |
| > 30 µM (inactive) | > 30 µM (inactive) | > 30 µM (inactive) | > 30 µM (inactive) | > 30 µM (inactive) | > 30 µM (inactive) |  |  | > 30 µM (inactive) | > 30 µM (inactive) |  |  | O=C(Nc1ccc(-c2ccnc(Nc3ccc(N4CCOCC4)cc3)n2)cc1)C1CCCN1 (stereo not drawn) [XL-019] |
|  |  |  |  | > 30 µM (inactive) | > 30 µM (inactive) |  |  | > 30 µM (inactive) | > 30 µM (inactive) | > 30 µM (inactive) |  | CNS(=O)(=O)Nc1nccc(Cc2c(C)c3ccc(Oc4ncccn4)cc3oc2=O)c1F [AVUTOMETINIB] |
|  |  | > 30 µM (inactive) | > 30 µM (inactive) |  |  | > 30 µM (inactive) |  | > 30 µM (inactive) |  | > 30 µM (inactive) |  | Cc1cc(Nc2cc(N3CCN(C)CC3)nc(/C=C/c3ccccc3)n2)n[nH]1 [ENMD-2076] |
|  | > 30 µM (inactive) | > 30 µM (inactive) |  | > 30 µM (inactive) | > 30 µM (inactive) | > 30 µM (inactive) |  |  |  | > 30 µM (inactive) |  | COc1cc(N2CCC(N3CCN(C)CC3)CC2)ccc1Nc1ncnc(Nc2ccccc2S(=O)(=O)C(C)C)n1 [ASP-3026] |
|  |  |  | > 30 µM (inactive) |  |  | > 30 µM (inactive) |  |  | > 30 µM (inactive) |  |  | Nc1nc(N)c2nc(-c3cccc(O)c3)c(-c3cccc(O)c3)nc2n1 [TG100-115] |
| > 30 µM (inactive) | > 30 µM (inactive) | > 30 µM (inactive) |  |  | > 30 µM (inactive) |  |  |  |  |  |  | CCn1c(=O)c(-c2cc[nH]n2)cc2c(C)nc(N)nc21 [VOXTALISIB] |
| > 30 µM (inactive) | > 30 µM (inactive) | > 30 µM (inactive) | > 30 µM (inactive) | > 30 µM (inactive) | > 30 µM (inactive) | > 30 µM (inactive) |  | > 30 µM (inactive) | > 30 µM (inactive) |  |  | CN1CCC(CNc2ccc3ncc(-c4cccc(OC(F)(F)F)c4)n3n2)CC1 [SGI-1776] |
|  |  |  | > 30 µM (inactive) |  |  |  |  |  |  |  | 5.97 | CCn1c(-c2nonc2N)nc2c(C#CC(C)(C)O)ncc(OC[C@H]3CCCNC3)c21 [GSK-690693] |
|  |  |  |  |  |  | > 30 µM (inactive) |  | > 30 µM (inactive) |  | > 30 µM (inactive) |  | CN1CCN(c2ccc3nc(-c4c(N)c5c(F)cccc5[nH]c4=O)[nH]c3c2)CC1 [DOVITINIB] |
| > 30 µM (inactive) | > 30 µM (inactive) | > 30 µM (inactive) |  | > 30 µM (inactive) |  | > 30 µM (inactive) |  | > 30 µM (inactive) |  | > 30 µM (inactive) |  | CN(C)C(=O)c1cc2cnc(Nc3ccc(N4CCNCC4)cn3)nc2n1C1CCCC1 [RIBOCICLIB] |
| > 30 µM (inactive) | > 30 µM (inactive) |  |  | > 30 µM (inactive) | > 30 µM (inactive) | > 30 µM (inactive) |  | > 30 µM (inactive) | > 30 µM (inactive) | > 30 µM (inactive) |  | COC(=O)N[C@@H](C)CNc1nccc(-c2cn(C(C)C)nc2-c2cc(Cl)cc(NS(C)(=O)=O)c2F)n1 [ENCORAFENIB] |
|  | > 30 µM (inactive) |  |  | > 30 µM (inactive) |  |  |  | > 30 µM (inactive) |  |  |  | C1=C/COCc2cc(ccc2OCCN2CCCC2)Nc2nccc(n2)-c2cccc(c2)COC/1 [PACRITINIB] |
|  | > 30 µM (inactive) |  |  | > 30 µM (inactive) |  |  |  |  |  | > 30 µM (inactive) |  | N[C@@H]1CCCN(c2c(/C=C3\SC(=O)NC3=O)cccc2-c2ccccc2)C1 |
| > 30 µM (inactive) | > 30 µM (inactive) | > 30 µM (inactive) |  | > 30 µM (inactive) | > 30 µM (inactive) |  |  |  |  |  |  | Cn1ncc(Cl)c1-c1cc(C(=O)N[C@H](CN)Cc2cccc(F)c2)sc1Cl [AFURESERTIB] |
|  |  |  |  | > 30 µM (inactive) |  |  |  | > 30 µM (inactive) | > 30 µM (inactive) |  |  | Cc1nc(N)sc1-c1ccnc(Nc2ccc(N3CCOCC3)cc2)n1 [CYC-116] |
| > 30 µM (inactive) | > 30 µM (inactive) | > 30 µM (inactive) | > 30 µM (inactive) | > 30 µM (inactive) | > 30 µM (inactive) | > 30 µM (inactive) |  | > 30 µM (inactive) | > 30 µM (inactive) |  |  | CO[C@H]1C[C@@H]2CC[C@@H](C)[C@@](O)(O2)C(=O)C(=O)N2CCCC[C@H]2C(=O)O[C@H]([C@H](C)C[C@@H]2CC[C@@H](OCCO)[C@H](OC)C2)CC(=O)[C@H](C)/C=C(\C)[C@@H](O)[C@@H](OC)C(=O)[C@H](C)C[C@H](C)/C=C/C=C/C=C/1C [EVEROLIMUS] |
| > 30 µM (inactive) | > 30 µM (inactive) | > 30 µM (inactive) | > 30 µM (inactive) | > 30 µM (inactive) | > 30 µM (inactive) |  |  |  |  |  |  | Cn1cc(-c2ccc(F)c(C(F)(F)F)c2)nc1C1CCN(c2ncnc3[nH]ncc23)CC1 [LY-2584702] |
| > 30 µM (inactive) | > 30 µM (inactive) | > 30 µM (inactive) | > 30 µM (inactive) | > 30 µM (inactive) | > 30 µM (inactive) |  |  | > 30 µM (inactive) |  | > 30 µM (inactive) |  | CC(C)Nc1cc(-c2c[nH]c(C(=O)N[C@H](CO)c3cccc(Cl)c3)c2)c(Cl)cn1 [ULIXERTINIB] |
| > 30 µM (inactive) |  | > 30 µM (inactive) | > 30 µM (inactive) |  |  |  |  | > 30 µM (inactive) | > 30 µM (inactive) | > 30 µM (inactive) |  | CNC(=O)c1ccc(C)c(-n2c(C)cc(OCc3ccc(F)cc3F)c(Br)c2=O)c1 [PH-797804] |
|  | > 30 µM (inactive) | > 30 µM (inactive) |  | > 30 µM (inactive) | > 30 µM (inactive) |  |  | > 30 µM (inactive) | > 30 µM (inactive) | > 30 µM (inactive) |  | O=C(O)[C@]1(Cc2cccc(Nc3nccs3)n2)CC[C@@H](Oc2cccc(Cl)c2F)CC1 [MK-5108] |
| > 30 µM (inactive) | > 30 µM (inactive) | > 30 µM (inactive) |  | > 30 µM (inactive) | > 30 µM (inactive) |  |  |  | > 30 µM (inactive) | > 30 µM (inactive) |  | CNC(=O)c1ccc(-c2cnc3ncc(Cc4ccc5ncccc5c4)n3n2)cc1F [CAPMATINIB] |

| Compound | Kd [1] | Kd [2] | Kd [3] | Kd [4] | Kd [5] | Kd [6] | Kd [7] | pKd [1] | Kd [8] | Kd [9] | Kd [10] | pKd [8] |
| --- | --- | --- | --- | --- | --- | --- | --- | --- | --- | --- | --- | --- |
| Cc1cn(-c2cc(NC(=O)c3ccc(C)c(Nc4nccc(-c5cccnc5)n4)c3)cc(C(F)(F)F)c2)cn1 [NILOTINIB] |  |  |  |  |  |  | > 30 µM (inactive) |  | > 30 µM (inactive) | > 30 µM (inactive) |  |  |
